SMILES strings stand for the structures. The source made the active and inactive calls.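 How the source made its calls: active means compounds giving half or more protection of infected cells from virus-caused growth loss, again on retest; inactive means the rest.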 Where a SMILES comes first, the peptide text is derived from it. [ ]: non-standard residue; d: D form. The star is where a group is joined. ξ: configuration not given here. ξF = NC(Cc1ccccc1)C(=O)O; Cbz = O=C(OCc1ccccc1)*; Aib = CC(C)(N)C(=O)O

For the assay, the system named is CEM cells HIV-1 protection, formazan growth assay. As to the kind of experiment: NCI AIDS Antiviral Assay. The following applies: for IC50: measured here: growth of uninfected CEM cells. In short, it runs like this: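 Category rules: moderately active means at least 50% protection on retest, and confirmed active means 100% protection reproducibly. The underlying data came from a formazan growth assay in HIV-1-infected CEM cells.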

On to `CCN(Cc1cccc(S(=O)(=O)O)c1)c1ccc(C(=C2C=CC(=[N+](CC)Cc3cccc(S(=O)(=O)O)c3)C=C2)c2ccc(S(=O)(=O)O)cc2)cc1`, for which the EC50 is above 112 µM and the 50% inhibitory concentration (IC50) is 79.4 µM.
In the same order, the values of `C=C(CCC(Cl)[C@@H]1COC(/C=C/C)O1)[Si](C)(C)C` (stereo partly drawn) are above 123 µM and above 123 µM.
The matching figures for `CCc1cccc(C(C)C)c1NC(=O)C(=O)C(Cc1nc2ccccc2[nH]c1=O)C(=O)OC` (stereo not drawn): above 112 µM and above 112 µM.
`O=C(CCNNC(=O)c1ccncc1)NCc1ccccc1`: the EC50 was above 200 µM and the IC50 is above 200 µM.
As to `COc1cc(OC)c(C#N)c(OC)c1C`, the outcome was inactive.
For `N.N.O=C([O-])P(=O)([O-])[O-].[Na+].[Pt+4]`, the EC50 is above 4170 µM and the half-maximal inhibitory concentration (IC50) was found to be 155 µM.
In the same order, the values of `CN1C(=O)N(C)[C@@H]2CC(=O)c3ccc(C(F)(F)F)cc3N2C1=O` are above 288 µM and above 288 µM.
The matching figures for `N#CCCN(CCNc1ccccc1)C(=O)Nc1ccc(NC(=O)N(CCC#N)CCNc2ccccc2)cc1`: above 200 µM and above 200 µM.
For `O=C(O)c1ccccc1/C=N\N(CCO)C1=NCCN1`, the EC50 is above 200 µM and the half-inhibitory concentration (IC50) is above 200 µM.
Turning to `COC(=O)C1CCc2c(OC)ccc(OC)c2C1=O` (stereo not drawn), the result was inactive.
Turning to `Nc1nn2cc3c(nc2c1N=Nc1ccccc1)CCCC3`, the EC50 is above 200 µM and the IC50 was 4.47 µM.
As to `CCOP(=O)(c1ccccc1)C([CH2][Sn]([CH3])([CH3])[Cl])P(=O)(OC(C)C)OC(C)C` (stereo not drawn), the EC50 is above 200 µM and the IC50 turned out to be 4.47 µM.
Turning to `O=C(O)/C=C\C(=O)c1ccc(Cl)cc1`, the EC50 was above 324 µM and the IC50 stood at 58.9 µM.
Turning to `O=C(N/N=C/c1ccccc1O)c1ccccc1Nc1ccccc1C(=O)N/N=C/c1ccccc1O`, the EC50 was above 42.7 µM and the IC50 was determined as 1.82 µM.
The matching figures for `Clc1ccccc1-c1nc2ccc(C34CC5CC(CC(C5)C3)C4)cc2[nH]1`: above 200 µM and 162 µM.
The matching figures for `CN(C)CCCNC(=O)c1cc(NC(=O)c2cc(NC(=O)c3cc(NC(=O)c4ccc(C(=O)Nc5cn(C)c(C(=O)Nc6cn(C)c(C(=O)Nc7cn(C)c(C(=O)NCCCN(C)C)n7)n6)n5)cc4)cn3C)cn2C)cn1C`: above 50.1 µM and above 50.1 µM.
In the same order, the values of `CC1(C)CNC[C@@]2(C)OCCOCCOCCO[C@@]3(C)CNCC(C)(C)NC(=O)[C@](C)(CNCC(C)(C)NC3=O)OCCOCCOCCO[C@](C)(CNCC(C)(C)NC2=O)C(=O)N1` are above 200 µM and above 200 µM.
In the case of `CN(C)C(=N)OCc1ccccc1`, the EC50 is above 200 µM and the IC50 was above 200 µM.
On to `O=C(c1nc2ccc(Cl)cc2[nH]c1=O)C(O)c1ccccc1` (stereo not drawn), for which the EC50 is above 575 µM and the IC50 is 11.5 µM.
The matching figures for `NC(CCC(=O)NCCCC(=O)O)C(=O)O` (stereo not drawn): above 85.1 µM and above 85.1 µM.
The matching figures for `O=CNNC(=O)Nc1ccc(Cl)cc1`: above 200 µM and above 200 µM.
With `S=C(S)N1CCNCC1`, the result was inactive.
As to `C[N+]12CCCCC1C(COc1cccc3cccnc13)CCC2` (stereo not drawn), the EC50 was above 200 µM and the IC50 amounted to 117 µM.
For `COc1ccc(C2c3cc4c(cc3OC(O)(CO)C2C(=O)O)OCO4)c(OC)c1OC` (stereo not drawn) (tested in a mixture with another compound), the outcome was inactive.
As to `CCCCCCCC/C=C\CCCCCCCC(=O)N(C)N(C)C(=O)CCCCCCC/C=C/CCCCCCCC`, the EC50 was above 200 µM and the concentration for half-maximal inhibition (IC50) is above 200 µM.
With `COc1ccc2c(c1)OCCN(C)OC2c1cccc(Cl)c1` (stereo not drawn), the EC50 is above 200 µM and the IC50 was determined as 87.1 µM.
On to `COC(=O)C1=CC2C(=O)OC1C1C(=O)NC(=O)C21` (stereo not drawn), for which the result was inactive.
As for `CCCC(=O)OC1CN2CC[C@H](O)C2C(O)[C@@H]1O` (stereo partly drawn), the EC50 is 2.29 µM and the IC50 was 955 µM.
Take `O=C(/C=C/C1C(=O)NC(=O)NC1=O)CC(=O)C(=O)Nc1cc(Cl)c(Cl)cc1Cl`: the EC50 is above 209 µM and the IC50 is above 209 µM.
Consider `CCCCCCCCCCCCCCCCNC(=O)/C(=C\c1ccc(Cl)c(Cl)c1)NC(=O)c1ccccc1`, for which the EC50 was above 100 µM and the IC50 came out at 20 µM.
Consider `O=C1/C(=C/c2ccc(Cl)cc2)CCC/C1=C\c1ccc(O)c(CN2CCCCC2)c1`, for which the EC50 was above 100 µM and the half-inhibitory concentration (IC50) worked out at 5.25 µM.
With `COc1cc2c3c(c1OC)-c1c(ccc4c1OCO4)CC3(C#N)N(C(=O)c1ccccc1)CC2` (stereo not drawn), the result was inactive.
With `Cc1nnc2scnn12`, the outcome was inactive.
`Cc1ccc(/C=C2\NC(=S)N(CN3CCOCC3)C2=O)cc1`: the EC50 is above 200 µM and the 50% inhibitory concentration (IC50) worked out at 45.7 µM.
The matching figures for `CCOC(=O)C(Cc1ccccc1)NC(=O)c1[nH]cnc1/N=N/N(C)C` (stereo not drawn): above 692 µM and 355 µM.
Consider `O=[N+]([O-])c1ccccc1C=NC12CC3CC(CC(C3)C1)C2`, for which the EC50 was above 115 µM and the IC50 is above 115 µM.
As to `CCC(O)(COC(N)=O)c1ccccc1` (stereo not drawn), the EC50 was above 200 µM and the half-maximal inhibitory concentration (IC50) is above 200 µM.
As to `OC(c1ccco1)C(F)(F)c1nc2ccccc2o1` (stereo not drawn), the EC50 is above 200 µM and the IC50 was above 200 µM.
Turning to `CN1C(=O)CC(=O)N1/C(=C/c1ccccc1)c1ccccc1`, the EC50 is above 200 µM and the IC50 came out at 155 µM.
In the same order, the values of `COC(=O)C(C)(C)NC(=O)C(Cc1ccccc1)NC(=O)C(C)(C)NC(=O)OCc1ccccc1` (stereo not drawn) (Cbz-[Aib]-[ξF]-[Aib]-OMe) are 195 µM and 741 µM.
Turning to `COc1cccc2c1C(=O)c1c(O)c3c(c(O)c1C2=O)C[C@@](O)(C(=O)CO)C[C@@H]3OC1CC(N(C)C)C(O)C(C)O1` (stereo partly drawn), the EC50 was above 0.2 µM and the concentration for half-maximal inhibition (IC50) was determined as 0.0631 µM.
In the case of `O=[As](O)(O)c1ccc(OCCO)cc1`, the EC50 is above 200 µM and the half-inhibitory concentration (IC50) is above 200 µM.
Turning to `S=c1nc(COc2ccc(Cl)cc2)[nH][nH]1`, the EC50 is above 1020 µM and the concentration for half-maximal inhibition (IC50) is above 1020 µM.
With `CC(C)/C(Cl)=N/OC(=O)Nc1ccc(Cl)c(Cl)c1`, the EC50 is above 20 µM and the half-inhibitory concentration (IC50) was 3.16 µM.
With `O=[N+]([O-])c1ccc(-c2csc(N=Nc3c(O)[nH]c4ccccc34)n2)cc1`, the concentration for a half-maximal effect (EC50) turned out to be 141 µM and the half-maximal inhibitory concentration (IC50) is above 200 µM.
With `Cc1c(O)c2ccccc2c2c1sc(NCCO)[n+]2C`, the EC50 was above 79.4 µM and the half-maximal inhibitory concentration (IC50) is 40.7 µM.
In the same order, the values of `COc1ccc(CC2(Cc3ccc(OC)cc3)CCOC2=O)cc1` are above 21.9 µM and above 21.9 µM.
For the molecule `CC(=O)Oc1ccccc1C(=O)O`, the EC50 is above 380 µM and the IC50 is above 380 µM.
For the molecule `CN1CCN(CCn2c3c4ccccc4ccc3c3oc(=O)c4ccccc4c32)CC1`, the EC50 was above 100 µM and the concentration for half-maximal inhibition (IC50) amounted to 3.02 µM.
In the same order, the values of `O=C1CC2(CCNCC2)C(=O)N1N1CCCC1` are above 200 µM and above 200 µM.
`NC12CC3CC(CC(C3)C1)C2`: the EC50 was above 200 µM, the result was inactive and the IC50 is above 200 µM.
For `O/N=C1/C2CC3CC1(c1ccccc1)CC(/C3=N/O)/C2=N\O` (stereo not drawn), the EC50 is above 200 µM and the IC50 was above 200 µM.
As to `Cn1ccnc1CCc1ccc(Cl)c(Cl)c1`, the EC50 is above 851 µM and the IC50 was found to be 97.7 µM.
Consider `CSC1=Nc2ccccc2N=C(c2ccc(Cl)cc2)C1`, for which the EC50 is above 12.6 µM and the half-maximal inhibitory concentration (IC50) was above 12.6 µM.
As to `NC(=S)NCC12CC3CC(CC(C3)C1)C2`, the result was inactive.
On to `CC(=O)Nc1ccc(Nc2nc(=O)[nH]c(=O)[nH]2)cc1`, for which the EC50 is above 200 µM and the IC50 is above 200 µM.
On to `C[PH+](C)CC[PH+](C)CC[PH+](C)C.[C-]#[O+].[C-]#[O+].[C-]#[O+].[Cr]`, for which the EC50 is above 2.88 µM and the 50% inhibitory concentration (IC50) was above 2.88 µM.
On to `O=[N+]([O-])c1ccc(Cl)c(C=NC23CC4CC(CC(C4)C2)C3)c1`, for which the EC50 was above 200 µM and the concentration for half-maximal inhibition (IC50) was 3.89 µM.
As to `Cc1ccc2ccc(-c3ccccc3)c3c2c1C(=O)c1ccccc1C3=O`, the outcome was inactive.
With `COC12OC3(C4OC41)C(C(=O)O[C@H]3CO[Si](C)(C)C(C)(C)C)C2C(=O)Oc1ccccc1` (stereo partly drawn), the EC50 is above 200 µM and the IC50 is above 200 µM.
Regarding `Cc1ns/c(=N\C(=S)N(C)C)n1C`, the outcome was inactive.
On to `CC1(C)CC(=O)c2c(nc3ccc4ccccc4c3c2-c2ccc(NC(=O)CCCCCCCCC(=O)Nc3ccc(-c4c5c(nc6ccc7ccccc7c46)CC(C)(C)CC5=O)cc3)cc2)C1`, for which the EC50 was above 100 µM and the concentration for half-maximal inhibition (IC50) was above 100 µM.
Take `CC1CCC2(C)C(CC=C(C=O)C2(O)C=O)C12CO2` (stereo not drawn): the outcome was inactive.
For the molecule `CSc1ncc2c(C#N)c3[nH]c4ccccc4n3c(=O)c2n1`, the EC50 is above 200 µM and the IC50 was 6.46 µM.
Turning to `CCOc1cccc(C=Nc2ccccc2SSc2ccccc2N=Cc2cccc(OCC)c2O)c1O`, the EC50 is above 100 µM and the half-inhibitory concentration (IC50) stood at 5.13 µM.
In the same order, the values of `CC(=O)c1c2c(cc3c1CC1(C3)Cc3cc4c(c(C(=O)O)c3C1)CCC4)CCC2` (stereo not drawn) are above 18.6 µM and above 18.6 µM.
In the same order, the values of `O=C1CN(O)C(c2ccccc2)=c2cc(Cl)ccc2=N1` are above 200 µM and above 200 µM.
In the same order, the values of `OC(C/C=N/N=C/CC(O)(C(F)(F)Cl)C(F)(F)Cl)(C(F)(F)Cl)C(F)(F)Cl` are above 200 µM and 89.1 µM.
As to `CCOC(=O)c1cc2sc(NC(=O)c3ccccc3)nc2o1`, the outcome was inactive.
In the case of `CC1=Nn2c(nnc2-c2ccccc2Cl)NC(C)(C)C1`, the EC50 was above 447 µM and the IC50 was 282 µM.
For the molecule `OCC1CC(F)C(n2cnc3c(NOCc4ccccc4)ncnc32)O1` (stereo not drawn), the EC50 was above 100 µM and the IC50 is above 100 µM.
On to `CC1=C(C(=O)CC(=O)C(=O)Nc2cccc(C)c2C)Sc2ccccc2N1`, for which the EC50 is above 331 µM and the half-maximal inhibitory concentration (IC50) was above 331 µM.

The EC50 is the concentration at which the effect is half-maximal. As a reminder, the IC50 is the concentration that gives 50% inhibition. A high value points to lower potency.
